In US20220257597A1, “Methods of Administering Elagolix” (AbbVie Inc., priority 2021, published 2022):
Entries after “also recorded” stand apart in the source; their conditions may differ.

How the values were obtained:
[1] = Drug-drug interaction study: effect of multiple doses of elagolix sodium on pharmacokinetics of bupropion (CYP2B6 substrate) and OH-bupropion
Procedure: Subjects: Twenty four (24) adult premenopausal women in generally good health participated in this study.
Elagolix 300 mg BID (as 300 mg immediate release tablets) was administered in the morning and evening on days 1 through 14 in period 2. […] No food was consumed for 2 hours prior to the evening doses of elagolix continuing through 2 hours after. The doses of elagolix were separated by approximately 12 hours.
Individual PK parameters (peak concentration [Cmax] and area under the concentration-time curve [AUC]) were estimated using noncompartmental methods.
Central value ratios (90% confidence intervals) for Cmax, AUC, and metabolite to parent ratios (MPRs) (day 11, period 2 vs. day 1, period 1) were calculated to assess the DDIs. Safety was evaluated through assessment of adverse events, vital signs, electrocardiogram, and clinical laboratory tests.
Adverse events (AEs) were monitored throughout the DDI study. Additional safety evaluations included monitoring of physical examinations, vital signs, electrocardiogram variables, and clinical laboratory values were assessed

[2] = tested on: CYP3A4; assay: In vitro studies: CYP3A induction; type: in vitro ADME
[3] = molecular target: efflux transporter P-glycoprotein (P-gp) (Homo sapiens, UniProt P08183); assay: P-glycoprotein inhibition; type: in vitro ADME
Sequence of efflux transporter P-glycoprotein (P-gp) (P08183 whole entry): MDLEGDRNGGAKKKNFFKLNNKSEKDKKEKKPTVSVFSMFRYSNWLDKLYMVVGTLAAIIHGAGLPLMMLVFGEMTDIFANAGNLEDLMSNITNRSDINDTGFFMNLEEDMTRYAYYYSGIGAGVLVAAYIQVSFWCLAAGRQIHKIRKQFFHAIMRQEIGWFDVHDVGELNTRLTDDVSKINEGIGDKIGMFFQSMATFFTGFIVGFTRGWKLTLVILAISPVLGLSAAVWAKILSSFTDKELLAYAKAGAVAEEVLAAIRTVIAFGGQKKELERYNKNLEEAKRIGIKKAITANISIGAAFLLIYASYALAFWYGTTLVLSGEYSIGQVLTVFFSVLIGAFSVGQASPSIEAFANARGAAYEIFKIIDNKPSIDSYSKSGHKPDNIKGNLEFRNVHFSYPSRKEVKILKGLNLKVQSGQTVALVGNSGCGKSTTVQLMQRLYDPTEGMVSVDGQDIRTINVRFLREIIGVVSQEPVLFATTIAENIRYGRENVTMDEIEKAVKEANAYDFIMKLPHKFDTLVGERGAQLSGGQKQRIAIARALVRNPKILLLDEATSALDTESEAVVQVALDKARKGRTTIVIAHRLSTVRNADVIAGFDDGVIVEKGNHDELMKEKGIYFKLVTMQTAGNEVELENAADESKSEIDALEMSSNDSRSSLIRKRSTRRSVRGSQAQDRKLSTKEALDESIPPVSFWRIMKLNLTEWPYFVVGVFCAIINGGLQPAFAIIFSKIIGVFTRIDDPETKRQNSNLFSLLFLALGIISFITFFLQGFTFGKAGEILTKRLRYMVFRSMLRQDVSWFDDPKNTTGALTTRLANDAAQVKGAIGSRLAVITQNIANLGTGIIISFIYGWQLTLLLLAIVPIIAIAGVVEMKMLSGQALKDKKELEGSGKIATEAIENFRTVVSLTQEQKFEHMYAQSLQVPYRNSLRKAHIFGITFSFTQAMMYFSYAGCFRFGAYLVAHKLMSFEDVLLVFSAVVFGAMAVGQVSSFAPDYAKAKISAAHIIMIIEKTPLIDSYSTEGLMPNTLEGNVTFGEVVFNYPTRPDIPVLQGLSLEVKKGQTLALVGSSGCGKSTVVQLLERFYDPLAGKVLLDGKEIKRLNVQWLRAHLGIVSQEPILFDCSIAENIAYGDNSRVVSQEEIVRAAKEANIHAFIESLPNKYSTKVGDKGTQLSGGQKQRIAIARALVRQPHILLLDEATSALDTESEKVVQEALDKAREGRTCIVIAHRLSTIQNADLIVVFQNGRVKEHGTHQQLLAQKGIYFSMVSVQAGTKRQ

[4] = tested on: CYP3A; assay: Substrate of / metabolism by CYP3A; type: in vitro ADME
[5] = molecular target: P-gp (Homo sapiens, UniProt P08183); assay: Substrate of P-gp; type: in vitro ADME
Sequence of P-gp (P08183 whole entry): as above

[6] = Embryofetal development study in the rat; type: in vivo
Procedure: (§1) Embryofetal development studies were conducted in the rat and rabbit. Elagolix was administered by oral gavage to pregnant rats (25 animals/dose) at doses of 0, 300, 600 and 1200 mg/kg/day and to rabbits (20 animals/dose) at doses of 0, 100, 150, and 200 mg/kg/day, during the period of organogenesis (gestation day 6-17 in the rat and gestation day 7-20 in the rabbit).

[7] = molecular target: T1, rat gonadotropin-releasing hormone (GnRH) receptor (Rattus norvegicus, UniProt P30969); assay: Binding to rat versus human GnRH receptor; conditions: rat vs human GnRH receptor
T1 sequence (P30969 1-327): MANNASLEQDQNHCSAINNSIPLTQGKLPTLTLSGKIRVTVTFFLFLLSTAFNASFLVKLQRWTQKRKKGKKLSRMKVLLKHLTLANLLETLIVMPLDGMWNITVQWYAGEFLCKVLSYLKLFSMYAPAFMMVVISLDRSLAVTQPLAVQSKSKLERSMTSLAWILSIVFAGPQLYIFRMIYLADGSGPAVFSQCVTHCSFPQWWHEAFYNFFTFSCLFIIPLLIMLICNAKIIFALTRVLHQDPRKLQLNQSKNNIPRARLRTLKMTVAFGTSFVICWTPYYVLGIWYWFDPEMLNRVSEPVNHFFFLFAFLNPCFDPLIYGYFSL

[8] = Elagolix apparent terminal phase elimination half-life; conditions: human, in vivo; read-out: apparent terminal phase elimination half-life (t1/2)
[9] = molecular target: T2, OATP1B1 transporter protein (Homo sapiens, UniProt Q9Y6L6, V174A); assay: Pharmacogenomics: elagolix plasma concentrations by SLCO1B1 521 genotype; type: in vivo; conditions: women with two reduced function alleles
T2 construct: Hepatic uptake of elagolix involves the OATP1B1 transporter protein; from tissue; host or cells: liver of patients (in vivo)
T2 sequence (Q9Y6L6 1-691 V174A): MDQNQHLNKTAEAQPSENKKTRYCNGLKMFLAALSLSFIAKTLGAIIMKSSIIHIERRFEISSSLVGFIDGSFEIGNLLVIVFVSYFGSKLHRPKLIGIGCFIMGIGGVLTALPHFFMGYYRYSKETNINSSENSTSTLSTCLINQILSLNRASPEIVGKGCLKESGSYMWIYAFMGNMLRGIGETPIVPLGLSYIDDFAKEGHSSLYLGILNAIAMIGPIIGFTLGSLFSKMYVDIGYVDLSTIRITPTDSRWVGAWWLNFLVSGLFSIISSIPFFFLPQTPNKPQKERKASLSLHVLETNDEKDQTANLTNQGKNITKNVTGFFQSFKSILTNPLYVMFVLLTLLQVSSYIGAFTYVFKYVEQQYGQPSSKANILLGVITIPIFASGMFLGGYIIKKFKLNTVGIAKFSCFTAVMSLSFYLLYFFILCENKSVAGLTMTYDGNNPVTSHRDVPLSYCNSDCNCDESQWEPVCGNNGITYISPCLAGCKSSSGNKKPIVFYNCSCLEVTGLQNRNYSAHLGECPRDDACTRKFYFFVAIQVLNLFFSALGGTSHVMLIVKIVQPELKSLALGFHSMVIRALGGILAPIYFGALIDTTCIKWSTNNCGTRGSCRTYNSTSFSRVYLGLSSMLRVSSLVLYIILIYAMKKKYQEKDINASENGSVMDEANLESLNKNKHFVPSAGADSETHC
Source text: Hepatic uptake of elagolix involves the OATP1B1 transporter protein. Higher plasma concentrations of elagolix have been observed in patients who have two reduced function alleles of the gene that encodes OATP1B1 (SLCO1B1 521T>C) (these patients are likely to have reduced hepatic uptake of elagolix; and thus, higher plasma elagolix concentrations). The frequency of this SLCO1B1 521 C/C genotype is generally less than 5% in most racial/ethnic groups. Women with this genotype are expected to have approximately 2-fold higher elagolix mean concentrations compared to women with normal transporter function (i.e., SLCO1B1 521T/T genotype). Adverse effects of elagolix have not been fully evaluated in subjects who have two reduced function alleles of the gene that encodes OATP1B1 (SLCO1B1 521T>C).

[10] = Embryofetal development study in the rabbit
Procedure: as §1

[11] = pregnant rabbits, 150 mg/kg/day

For `COc1cccc(-c2c(C)n(Cc3c(F)cccc3C(F)(F)F)c(=O)n(C[C@H](NCCCC(=O)O)c3ccccc3)c2=O)c1F` [elagolix, 4-((R)-2-[5-(2-fluoro-3-methoxy-phenyl)-3-(2-fluoro-6-trifluoromethyl-benzyl)-4-methyl-2,6-dioxo-3,6-dihydro-2H-pyrimidin-1-yl]-1-phenyl-ethylamino)-butyric acid], which “CYP2B6 induction in the healthy volunteer study” value ([1]; elagolix 300 mg BID for 10 days) is on record?
The value was “did not induce CYP2B6”.

What about the “tolerability of co-administration of elagolix and bupropion” value ([1]; healthy premenopausal female subjects) of the same compound?
Its value is “generally well tolerated”.

What about the “inducer of CYP3A4 / cytochrome P450 (CYP) 3A” value [2] of the same compound?
The value was “weak to moderate inducer”.

What about the “inhibitor of efflux transporter P-glycoprotein (P-gp)” value [3] of the same compound?
Its value is “inhibitor”.

What about the “substrate of CYP3A” value [4] of the same compound?
The value was “substrate”.

What about the “substrate of P-gp” value [5] of the same compound?
The value was “substrate”.

What about the “dose with increased post implantation losses, as multiple of the MRHD based on AUC” value ([6]; pregnant rats, mid dose group) of the same compound?
The value was 12 times the MRHD.

What about the maternal deaths ([6]; pregnant rats, oral gavage 300, 600 and 1200 mg/kg/day) of the same compound?
The maternal deaths was “six deaths”.

And the “fetal malformations / structural abnormalities” value ([6]; rat, any dose level tested)?
The value was “no structural abnormalities; also recorded: No fetal malformations”.

What about the “binding to the rat GnRH receptor, fold less than to the human GnRH receptor” value [7] of the same compound?
Its value is ~1000 fold.

And the half-life [8]?
Its half-life is 4 to 6 h.

What about the “elagolix mean concentrations, SLCO1B1 521 C/C genotype compared to SLCO1B1 521T/T genotype” value [9] of the same compound?
The value was “approximately 2 fold”.

And the “highest, maternally toxic dose with spontaneous abortions and total litter loss, as multiple of the MRHD based on AUC” value ([10]; pregnant rabbits)?
The value was 7 times the MRHD.

What about the “findings at lower non-maternally toxic dose” value [10, 11] of the same compound?
Its value is “A single total litter loss”.

What about the “non-maternally toxic dose with total litter loss, as multiple of the MRHD” value [10, 11] of the same compound?
The value was 4 times the MRHD.

And the “findings at the highest, maternally toxic dose” value ([10]; pregnant rabbits, oral gavage, gestation day 7-20)?
Its value is “three spontaneous abortions and a single total litter loss”.

What about the “fetal malformations / structural abnormalities” value ([10]; rabbit, any dose level tested) of the same compound?
Its value is “no structural abnormalities; also recorded: No fetal malformations”.
